In ChEMBL document CHEMBL3046407, “Toxicity of monoterpenes against larvae and adults of Colorado potato beetle, Leptinotarsa decemlineata Say (Coleoptera: Chrysomelidae)” (2007):

How the values were obtained:
Type in all cases: functional
[1] = tested on: Leptinotarsa decemlineata; test: Insecticidal activity against second-instar larval stage of Leptinotarsa decemlineata infested potato leaves assessed as mortality at 10 ul after 48 hr (reference value: 3.3 +/- 3.3%)
[2] = tested on: Leptinotarsa decemlineata; test: Insecticidal activity against first-instar larval stage of Leptinotarsa decemlineata infested potato leaves assessed as mortality at 10 ul after 96 hr relative to control
[3] = tested on: Leptinotarsa decemlineata; test: Insecticidal activity against adult Leptinotarsa decemlineata infested potato leaves assessed as mortality at 10 ul after 24 hr relative to control
[4] = tested on: Leptinotarsa decemlineata; test: Insecticidal activity against first-instar larval stage of Leptinotarsa decemlineata infested potato leaves assessed as mortality at 20 ul after 48 hr relative to control
[5] = tested on: Leptinotarsa decemlineata; test: Insecticidal activity against second-instar larval stage of Leptinotarsa decemlineata infested potato leaves assessed as mortality at 20 ul after 12 hr relative to control
[6] = tested on: Leptinotarsa decemlineata; test: Insecticidal activity against second-instar larval stage of Leptinotarsa decemlineata infested potato leaves assessed as mortality at 10 ul after 96 hr (reference value: 3.3 +/- 3.3%)
[7] = tested on: Leptinotarsa decemlineata; test: Insecticidal activity against third-instar larval stage of Leptinotarsa decemlineata infested potato leaves assessed as mortality at 20 ul after 24 hr relative to control
[8] = tested on: Leptinotarsa decemlineata; test: Insecticidal activity against third-instar larval stage of Leptinotarsa decemlineata infested potato leaves assessed as mortality at 20 ul after 48 hr (reference value: 3.3 +/- 3.3%)
[9] = tested on: Leptinotarsa decemlineata; test: Insecticidal activity against third-instar larval stage of Leptinotarsa decemlineata infested potato leaves assessed as mortality at 20 ul after 96 hr (reference value: 3.3 +/- 3.3%)
[10] = tested on: Leptinotarsa decemlineata; test: Insecticidal activity against third-instar larval stage of Leptinotarsa decemlineata infested potato leaves assessed as mortality at 10 ul after 12 hr relative to control
[11] = tested on: Leptinotarsa decemlineata; test: Insecticidal activity against second-instar larval stage of Leptinotarsa decemlineata infested potato leaves assessed as mortality at 20 ul after 96 hr (reference value: 3.3 +/- 3.3%)
[12] = tested on: Leptinotarsa decemlineata; test: Insecticidal activity against third-instar larval stage of Leptinotarsa decemlineata infested potato leaves assessed as mortality at 10 ul after 24 hr relative to control
[13] = tested on: Leptinotarsa decemlineata; test: Insecticidal activity against first-instar larval stage of Leptinotarsa decemlineata infested potato leaves assessed as mortality at 20 ul after 96 hr relative to control
[14] = tested on: Leptinotarsa decemlineata; test: Insecticidal activity against third-instar larval stage of Leptinotarsa decemlineata infested potato leaves assessed as mortality at 10 ul after 96 hr (reference value: 3.3 +/- 3.3%)
[15] = tested on: Leptinotarsa decemlineata; test: Insecticidal activity against adult Leptinotarsa decemlineata infested potato leaves assessed as mortality at 20 ul after 12 hr relative to control
[16] = tested on: Leptinotarsa decemlineata; test: Insecticidal activity against third-instar larval stage of Leptinotarsa decemlineata infested potato leaves assessed as mortality at 20 ul after 12 hr relative to control
[17] = tested on: Leptinotarsa decemlineata; test: Insecticidal activity against first-instar larval stage of Leptinotarsa decemlineata infested potato leaves assessed as mortality at 10 ul after 24 hr relative to control
[18] = tested on: Leptinotarsa decemlineata; test: Insecticidal activity against adult Leptinotarsa decemlineata infested potato leaves assessed as mortality at 10 ul after 48 hr relative to control
[19] = tested on: Leptinotarsa decemlineata; test: Insecticidal activity against adult Leptinotarsa decemlineata infested potato leaves assessed as mortality at 10 ul after 12 hr relative to control
[20] = tested on: Leptinotarsa decemlineata; test: Insecticidal activity against adult Leptinotarsa decemlineata infested potato leaves assessed as mortality at 20 ul after 48 hr relative to control
[21] = tested on: Leptinotarsa decemlineata; test: Insecticidal activity against first-instar larval stage of Leptinotarsa decemlineata infested potato leaves assessed as mortality at 10 ul after 12 hr relative to control
[22] = tested on: Leptinotarsa decemlineata; test: Insecticidal activity against third-instar larval stage of Leptinotarsa decemlineata infested potato leaves assessed as mortality at 10 ul after 48 hr (reference value: 3.3 +/- 3.3%)
[23] = tested on: Leptinotarsa decemlineata; test: Insecticidal activity against first-instar larval stage of Leptinotarsa decemlineata infested potato leaves assessed as mortality at 10 ul after 48 hr relative to control
[24] = tested on: Leptinotarsa decemlineata; test: Insecticidal activity against first-instar larval stage of Leptinotarsa decemlineata infested potato leaves assessed as mortality at 20 ul after 12 hr relative to control
[25] = tested on: Leptinotarsa decemlineata; test: Insecticidal activity against adult Leptinotarsa decemlineata infested potato leaves assessed as mortality at 20 ul after 96 hr relative to control
Sitophilus granarius = test: Insecticidal activity against Sitophilus granarius (granary weevil) assessed as mortality
[26] = tested on: Leptinotarsa decemlineata; test: Insecticidal activity against adult Leptinotarsa decemlineata infested potato leaves assessed as mortality at 10 ul after 96 hr relative to control
[27] = tested on: Leptinotarsa decemlineata; test: Insecticidal activity against second-instar larval stage of Leptinotarsa decemlineata infested potato leaves assessed as mortality at 20 ul after 48 hr (reference value: 3.3 +/- 3.3%)
[28] = tested on: Leptinotarsa decemlineata; test: Insecticidal activity against adult Leptinotarsa decemlineata infested potato leaves assessed as mortality at 20 ul after 24 hr relative to control
[29] = tested on: Leptinotarsa decemlineata; test: Insecticidal activity against second-instar larval stage of Leptinotarsa decemlineata infested potato leaves assessed as mortality at 10 ul after 24 hr (reference value: 3.3 +/- 3.3%)
[30] = tested on: Leptinotarsa decemlineata; test: Insecticidal activity against first-instar larval stage of Leptinotarsa decemlineata infested potato leaves assessed as mortality at 20 ul after 24 hr relative to control
[31] = tested on: Leptinotarsa decemlineata; test: Insecticidal activity against second-instar larval stage of Leptinotarsa decemlineata infested potato leaves assessed as mortality at 20 ul after 24 hr (reference value: 3.3 +/- 3.3%)
[32] = tested on: Leptinotarsa decemlineata; test: Insecticidal activity against second-instar larval stage of Leptinotarsa decemlineata infested potato leaves assessed as mortality at 10 ul after 12 hr relative to control

Row | Compound | mortality [1] [%] | mortality [2] [%] | mortality [3] [%] | mortality [4] [%] | mortality [5] [%] | mortality [6] [%] | mortality [7] [%] | mortality [8] [%] | mortality [9] [%] | mortality [10] [%] | mortality [11] [%] | mortality [12] [%] | mortality [13] [%] | mortality [14] [%] | mortality [15] [%] | mortality [16] [%] | mortality [17] [%] | mortality [18] [%] | mortality [19] [%] | mortality [20] [%] | also measured
1 | C=C(C)[C@H]1CC=C(C)CC1 [D-LIMONENE] | 90 | 90 | 100 | 80 | 76.7 | 93.3 | 60 | 63.3 | 70 | 0 | 90 | 46.7 | 90 | 53.3 | 90 | 33.3 | 50 | 100 | 83.3 | 100 | mortality [21]: 23.3%; mortality [22]: 50%; mortality [23]: 83.3%; mortality [24]: 43.3%; mortality [25]: 100%; mortality (Sitophilus granarius): 90%; mortality [26]: 100%; mortality [27]: 80%; mortality [28]: 100%; mortality [29]: 86.7%; mortality [30]: 76.7%; mortality [31]: 80%; mortality [32]: 53.3%
2 | CC(C)[C@H]1CC[C@H](C)CC1=O (relative stereo) [REL-MENTHONE] | 33.3 | 50 | 93.3 | 56.7 | 26.7 | 36.7 | 30 | 43.3 | 50 | 30 | 56.7 | 50 | 66.7 | 56.7 | 83.3 | 23.3 | 23.3 | 100 | 70 | 100 | mortality [21]: 6.7%; mortality [22]: 53.3%; mortality [23]: 40%; mortality [24]: 26.7%; mortality [25]: 100%; mortality (Sitophilus granarius): 90%; mortality [26]: 100%; mortality [27]: 56.7%; mortality [28]: 100%; mortality [29]: 33.3%; mortality [30]: 53.3%; mortality [31]: 53.3%; mortality [32]: 13.3%
3 | CC12CCC(CC1)C(C)(C)O2 [EUCALYPTOL] | 100 | 100 | 100 | 100 | 83.3 | 100 | 73.3 | 80 | 86.7 | 40 | 100 | 50 | 100 | 76.7 | 83.3 | 56.7 | 66.7 | 100 | 100 | 100 | mortality [21]: 26.7%; mortality [22]: 63.3%; mortality [23]: 83.3%; mortality [24]: 46.7%; mortality [25]: 100%; mortality (Sitophilus granarius): 90%; mortality [26]: 100%; mortality [27]: 100%; mortality [28]: 100%; mortality [29]: 100%; mortality [30]: 100%; mortality [31]: 100%; mortality [32]: 43.3%
